US20150080337A1, “N-CYCLOALKYL-N-[(TRISUBSTITUTEDSILYLPHENYL)METHYLENE]-(THIO)CARBOXAMIDE DERIVATIVES” (BAYER CROPSCIENCE, priority 2012, published 2015)

Tests used:
[1] = system: Sphaerotheca fuliginea; experiment: In vivo test on Sphaerotheca fuliginea (cucurbits powdery mildew); details: 500 ppm of active ingredient; gherkin plants sprayed 24 hours before contamination; grading 12 days after contamination vs control plants
Procedure: (§1) The active ingredients tested are prepared by homogenization in a mixture of acetone/tween/DMSO and then diluted with water to obtain the desired active material concentration.
Gherkin plants (“Vert petit de Paris” variety), sown in starter cups on a 50/50 peat soil-pozzolana substrate and grown at 24° C., are treated at the Z11 cotyledon stage by spraying with the active ingredient prepared as described above. Plants, used as controls, are treated with the mixture of acetone/tween/DMSO/water not containing the active material.
After 24 hours, the plants are contaminated by spraying the cotyledons with an aqueous suspension of Sphaerotheca fuliginea spores (100 000 spores per mL). The spores are collected from infected plants. The contaminated gherkin plants are incubated at about 20° C. and at 70-80% relative humidity.
(§2) Grading (% of efficacy) is carried out 12 days after the contamination, in comparison with the control plants.
Under these conditions, good (at least 70%) to total protection is observed at a dose of 500 ppm of active ingredient with the following compounds from table A: […]

[2] = system: Alternaria brassicae; experiment: In vivo preventive test on Alternaria brassicae (leaf spot on radish); details: 500 ppm of active ingredient; radish plants sprayed 24 hours before contamination; grading 6 days after contamination vs control plants
Procedure: (§3) The active ingredients tested are prepared by homogenization in a mixture of acetone/tween/DMSO, and then diluted with water to obtain the desired active material concentration.
Radish plants (“Pernod Clair” variety), sown in starter cups on a 50/50 peat soil pozzolana substrate and grown at 17° C., are treated at the cotyledon stage by spraying with the active ingredient prepared as described above. Plants, used as controls, are treated with the mixture of acetone/tween/DMSO/water not containing the active material.
After 24 hours, the plants are contaminated by spraying the cotyledons with an aqueous suspension of Alternaria brassicae spores (50 000 spores per mL). The spores are collected from a 15-day-old culture. The contaminated radish plants are incubated at 20° C. and at 100% relative humidity.
Grading (% of efficacy) is carried out 6 days after the contamination, in comparison with the control plants.
Under these conditions, good (at least 70%) to total protection is observed at a dose of 500 ppm of active ingredient with the following compounds from table D: […]

[3] = log P by HPLC on reversed-phase column (C 18), EEC Directive 79/831 Annex V.A8; format: physicochemical; details: Table 1, compounds of formula (I); HPLC C 18, 40° C., 0.1% aqueous formic acid and acetonitrile, gradient 10% to 90% acetonitrile
Procedure: In table 1, the log P values were determined in accordance with EEC Directive 79/831 Annex V.A8 by HPLC (High Performance Liquid Chromatography) on a reversed-phase column (C 18), using the method described below:
Temperature: 40° C.; Mobile phases: 0.1% aqueous formic acid and acetonitrile; linear gradient from 10% acetonitrile to 90% acetonitrile.
Calibration was carried out using unbranched alkan-2-ones (comprising 3 to 16 carbon atoms) with known log P values (determination of the log P values by the retention times using linear interpolation between two successive alkanones). lambda-max-values were determined using UV-spectra from 200 nm to 400 nm and the peak values of the chromatographic signals.
In table 2, M+H (Apcl+) and log P are defined as for table 1.

[4] = system: Uromyces appendiculatus; experiment: In vivo preventive test on Uromyces appendiculatus (bean rust); details: 500 ppm of active ingredient; bean plants sprayed 24 hours before contamination; grading 11 days after contamination vs control plants
Procedure: as §3
Bean plants (“Saxa” variety), sown in starter cups on a 50/50 peat soil pozzolana substrate and grown at 24° C., are treated at the 2 leaf stage (9 cm height) by spraying with the active ingredient prepared as described above. Plants, used as controls, are treated with the mixture of acetone/tween/DMSO/water not containing the active material.
(§4) After 24 hours, the plants are contaminated by spraying the leaves with an aqueous suspension of Uromyces appendiculatus spores (150 000 spores per mL). The spores are collected from infected plants and are suspended in water containing 2.5 mL/L of Tween 80 at 10%. The contaminated bean plants are incubated for 24 hours at 20° C. and at 100% relative humidity, and then for 10 days at 20° C. and at 70-80% relative humidity.
Grading (% of efficacy) is carried out 11 days after the contamination, in comparison with the control plants.
Under these conditions, good (at least 70%) to total protection is observed at a dose of 500 ppm of active ingredient with the following compounds from table G: […]

[5] = system: Septoria tritici; experiment: In vivo preventive test on Septoria tritici (wheat); details: 500 ppm of active ingredient; wheat plants sprayed 24 hours before contamination; grading 24 days after contamination vs control plants
Procedure: as §3
(§5) Wheat plants (“Scipion” variety), sown in starter cups on a 50/50 peat soil pozzolana substrate and grown at 22° C., are treated at the 1 leaf stage (10 cm height) by spraying with the active ingredient prepared as described above. Plants, used as controls, are treated with the mixture of acetone/tween/DMSO/water not containing the active material.
After 24 hours, the plants are contaminated by spraying the leaves with an aqueous suspension of cryopreserved Septoria tritici spores (500 000 spores per mL). The contaminated wheat plants are incubated for 72 hours at 18° C. and at 100% relative humidity, and then for 21 days at 90% relative humidity.
Grading (% of efficacy) is carried out 24 days after the contamination, in comparison with the control plants.
Under these conditions, good (at least 70%) to total protection is observed at a dose of 500 ppm of active ingredient with the following compounds from table F: […]

[6] = system: Puccinia recondita; experiment: In vivo test on Puccinia recondita (brown rust); details: 500 ppm of active ingredient; wheat plants sprayed 24 hours before contamination; grading 12 days after contamination vs control plants
Procedure: as §3, §5
as §4, with “of Puccinia recondita” for “of Uromyces appendiculatus”, “spores (100” for “spores (150”, “from an” for “from”, “infected plant” for “infected plants”, “contaminated wheat” for “contaminated bean”
as §2
Under these conditions, good (at least 70%) to excellent (at least 90%) protection is observed at a dose of 500 ppm of active ingredient with the following compounds from table C: […]

[7] = system: Pyrenophora teres; experiment: In vivo test on Pyrenophora teres (barley net blotch); details: 500 ppm of active ingredient; barley plants sprayed 24 hours before contamination; grading 14 days after contamination vs control plants
Procedure: as §3
Barley plants (“Plaisant” variety), sown in starter cups on a 50/50 peat soil pozzolana substrate and grown at 22° C., are treated at the 1 leaf stage (10 cm height) by spraying with the active ingredient prepared as described above. Plants, used as controls, are treated with the mixture of acetone/tween/DMSO/water not containing the active material.
After 24 hours, the plants are contaminated by spraying the leaves with an aqueous suspension of Pyrenophora teres spores (12 000 spores per mL). The spores are collected from a 12-day-old culture. The contaminated barley plants are incubated for 48 hours at 20° C. and at 100% relative humidity, and then for 12 days at 20° C. at 70-80% relative humidity.
Grading (% of efficacy) is carried out 14 days after the contamination, in comparison with the control plants.
Under these conditions, good (at least 70%) to excellent (at least 90%) protection is observed at a dose of 500 ppm of active ingredient with the following compounds from table B: […]

[8] = system: Botrytis cinerea; experiment: In vivo preventive test on Botrytis cinerea (grey mould); details: 500 ppm of active ingredient; gherkin plants sprayed 24 hours before contamination; grading 4 to 5 days after contamination vs control plants
Procedure: as §1
Gherkin plants (“Vert petit de Paris” variety), sown in starter cups on a 50/50 peat soil pozzolana substrate and grown at 24° C., are treated at the Z11 cotyledon stage by spraying with the active ingredient prepared as described above. Plants, used as controls, are treated with the mixture of acetone/tween/DMSO/water not containing the active material.
After 24 hours, the plants are contaminated by spraying the cotyledons with an aqueous suspension of cryopreserved Botrytis cinerea spores (50 000 spores per mL). The spores are suspended in a nutrient solution composed of 10 g/L of PDB, 50 g/L of D-Fructose, 2 g/L of NH4NO3 and 1 g/L of KH2PO4. The contaminated gherkin plants are incubated at 17° C. and at 90% relative humidity.
Grading (% of efficacy) is carried out 4 to 5 days after the contamination, in comparison with the control plants.
Under these conditions, good (at least 70%) is observed at a dose of 500 ppm of active ingredient with the following compound from table E: […]

| SMILES | logP [3] | Efficacy [1] [%] | Efficacy [2] [%] | Efficacy [4] [%] | Efficacy [5] [%] | Efficacy [6] [%] | Efficacy [7] [%] | Efficacy [8] [%] | chromatographic logP [3] |
| --- | --- | --- | --- | --- | --- | --- | --- | --- | --- |
| Cn1nc(C(F)F)c(C(=S)N(Cc2ccccc2[Si](C)(C)c2ccc(Cl)cc2)C2CC2)c1F [I.8] | 3.09 | 100 | 88 | 97 | 97 | 88 | – | – | – |
| Cn1nc(C(F)F)c(C(=O)N(Cc2ccccc2[Si](C)(C)c2ccc(Oc3ccccc3)cc2)C2CC2)c1F [I.19] | 5.68 | 100 | – | 96 | 100 | 93 | 97 | – | – |
| Cn1cc(C(=O)N(Cc2ccccc2[Si](C)(C)c2ccc(Oc3ccccc3)cc2)C2CC2)c(C(F)F)n1 [I.20] | 5.31 | 83 | – | 89 | 75 | – | 79 | – | – |
| Cc1nn(C)c(F)c1C(=O)N(Cc1ccccc1[Si](C)(C)c1ccccc1)C1CC1 [I.1, N-cyclopropyl-N-{2-[dimethyl(phenyl)silyl]benzyl}-5-fluoro-1,3-dimethyl-1H-pyrazole-4-carboxamide] | – | 100 | – | 93 | 96 | 92 | – | – | 4.24 |

Continued, in another order:

| logP [3] | SMILES | Efficacy [1] [%] | Efficacy [2] [%] | Efficacy [4] [%] | Efficacy [5] [%] | Efficacy [6] [%] | Efficacy [7] [%] | Efficacy [8] [%] | chromatographic logP [3] |
| --- | --- | --- | --- | --- | --- | --- | --- | --- | --- |
| 5.19 | Cn1nc(C(F)F)c(C(=O)N(Cc2ccccc2[Si](C)(C)c2cccc3ccccc23)C2CC2)c1F [I.25] | 100 | 80 | 86 | 100 | – | – | – | – |
| 5.84 | C[Si](C)(c1ccccc1CN(C(=O)c1ccsc1I)C1CC1)c1cccc2ccccc12 [I.29] | – | – | – | – | – | – | 75 | – |
